In paper PMC3408863 (European journal of medicinal chemistry, 2012):
Where a name gives a salt, the structure may show the parent alone.

How the values were obtained:
[1] = biological target: Human FVIIa (Homo sapiens, UniProt P08709); assay: Chromogenic substrate hydrolysis assay, FVIIa; assay type: biochemical; settings: FXa over Human FVIIa
[2] = biological target: T1, Human FXIIa (Homo sapiens, UniProt P00748); assay: Chromogenic substrate hydrolysis assay, FXIIa; assay type: biochemical; settings: FXa over Human FXIIa
T1 sequence (P00748 373-615 limits assumed): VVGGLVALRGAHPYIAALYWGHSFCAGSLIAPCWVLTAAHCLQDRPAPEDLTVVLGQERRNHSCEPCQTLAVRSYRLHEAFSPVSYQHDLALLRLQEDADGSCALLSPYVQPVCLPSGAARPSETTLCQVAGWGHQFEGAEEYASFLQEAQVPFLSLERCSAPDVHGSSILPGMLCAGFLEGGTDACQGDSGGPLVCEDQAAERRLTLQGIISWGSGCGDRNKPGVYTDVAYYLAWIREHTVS
T1 sequence (P00748 20-372 limits assumed): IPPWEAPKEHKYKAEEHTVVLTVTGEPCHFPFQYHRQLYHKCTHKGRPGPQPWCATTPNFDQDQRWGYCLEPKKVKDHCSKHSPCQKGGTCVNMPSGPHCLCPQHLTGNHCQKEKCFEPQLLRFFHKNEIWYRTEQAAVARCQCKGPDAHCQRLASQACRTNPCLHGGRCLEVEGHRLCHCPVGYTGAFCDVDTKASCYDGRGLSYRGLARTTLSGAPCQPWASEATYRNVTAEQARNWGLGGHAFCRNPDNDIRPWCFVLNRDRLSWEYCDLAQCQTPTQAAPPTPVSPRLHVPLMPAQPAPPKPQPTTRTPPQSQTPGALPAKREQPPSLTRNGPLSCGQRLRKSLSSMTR

[3] = biological target: Human FIXa (Homo sapiens, UniProt P00740); assay: Chromogenic substrate hydrolysis assay, FIXa; assay type: biochemical; settings: FXa over Human FIXa
[4] = biological target: Bovine Chymotrypsin (Bos taurus, UniProt P00766); assay: Chromogenic substrate hydrolysis assay, chymotrypsin; assay type: biochemical; settings: FXa over chymotrypsin
[5] = biological target: Human FIIa (Homo sapiens, UniProt P00734); assay: Chromogenic substrate hydrolysis assay, FIIa; assay type: biochemical; settings: FXa over Human FIIa
[6] = biological target: Human FXIa (Homo sapiens, UniProt P03951); assay: Chromogenic substrate hydrolysis assay, FXIa; assay type: biochemical; settings: FXa over Human FXIa
[7] = biological target: T2, Bovine Trypsin (Bos taurus, UniProt P00760); assay: Chromogenic substrate hydrolysis assay, trypsin; assay type: biochemical
T2 sequence (P00760 24-246): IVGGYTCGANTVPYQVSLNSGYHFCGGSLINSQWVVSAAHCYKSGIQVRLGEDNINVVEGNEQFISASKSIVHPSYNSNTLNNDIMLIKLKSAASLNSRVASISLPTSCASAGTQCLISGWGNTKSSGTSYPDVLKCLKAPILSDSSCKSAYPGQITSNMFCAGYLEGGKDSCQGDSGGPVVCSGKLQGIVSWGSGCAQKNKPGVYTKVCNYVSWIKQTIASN

[8] = biological target: human FXa (Homo sapiens, UniProt P00742); assay: Direct inhibition of FXa, chromogenic substrate hydrolysis assay; assay type: biochemical
[9] = system: human plasma; settings: comparators in clinical trials; cited from earlier work

human FXa, sequence (P00742 235-488 limits assumed): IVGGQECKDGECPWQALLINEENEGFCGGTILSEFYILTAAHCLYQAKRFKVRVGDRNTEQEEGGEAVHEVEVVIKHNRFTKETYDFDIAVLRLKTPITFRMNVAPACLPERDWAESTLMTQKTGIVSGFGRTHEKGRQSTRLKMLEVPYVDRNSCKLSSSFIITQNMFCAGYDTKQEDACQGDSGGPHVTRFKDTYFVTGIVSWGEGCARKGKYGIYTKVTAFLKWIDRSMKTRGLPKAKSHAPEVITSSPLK
human FXa, sequence (P00742 41-179 limits assumed): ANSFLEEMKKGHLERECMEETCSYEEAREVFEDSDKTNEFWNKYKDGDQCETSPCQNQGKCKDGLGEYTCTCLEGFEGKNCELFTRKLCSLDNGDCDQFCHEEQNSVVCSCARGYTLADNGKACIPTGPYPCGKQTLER
Human FVIIa, sequence (P08709 213-466 limits assumed): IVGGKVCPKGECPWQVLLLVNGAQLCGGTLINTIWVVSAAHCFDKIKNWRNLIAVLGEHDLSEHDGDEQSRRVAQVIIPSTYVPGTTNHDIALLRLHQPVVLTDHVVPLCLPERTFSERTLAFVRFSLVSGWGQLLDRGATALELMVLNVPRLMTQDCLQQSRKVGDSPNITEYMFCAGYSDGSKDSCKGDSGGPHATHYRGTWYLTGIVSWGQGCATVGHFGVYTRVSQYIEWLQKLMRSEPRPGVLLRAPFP
Human FVIIa, sequence (P08709 61-212 limits assumed): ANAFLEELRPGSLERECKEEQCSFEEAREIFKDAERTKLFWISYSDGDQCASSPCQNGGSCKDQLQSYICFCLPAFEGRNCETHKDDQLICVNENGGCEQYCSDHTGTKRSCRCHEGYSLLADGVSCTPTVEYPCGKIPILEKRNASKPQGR
Human FVIIa, sequence (P13726 33-295 partner): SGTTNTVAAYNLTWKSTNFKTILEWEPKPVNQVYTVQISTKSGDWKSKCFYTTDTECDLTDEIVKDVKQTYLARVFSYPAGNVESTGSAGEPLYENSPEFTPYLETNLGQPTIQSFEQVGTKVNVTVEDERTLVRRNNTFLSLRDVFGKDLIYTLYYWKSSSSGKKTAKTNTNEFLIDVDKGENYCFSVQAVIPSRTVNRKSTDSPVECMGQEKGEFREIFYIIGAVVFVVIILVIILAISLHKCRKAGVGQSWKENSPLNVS
Human FXIa, sequence (P03951 388-625 limits assumed): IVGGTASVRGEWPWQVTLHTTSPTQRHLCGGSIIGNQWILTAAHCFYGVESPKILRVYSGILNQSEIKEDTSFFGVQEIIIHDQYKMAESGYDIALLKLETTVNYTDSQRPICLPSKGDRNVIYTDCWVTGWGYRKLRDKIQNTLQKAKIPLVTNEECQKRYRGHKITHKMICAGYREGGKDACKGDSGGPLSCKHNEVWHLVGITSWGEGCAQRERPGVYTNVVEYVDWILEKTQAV
Human FXIa, sequence (P03951 19-387 limits assumed): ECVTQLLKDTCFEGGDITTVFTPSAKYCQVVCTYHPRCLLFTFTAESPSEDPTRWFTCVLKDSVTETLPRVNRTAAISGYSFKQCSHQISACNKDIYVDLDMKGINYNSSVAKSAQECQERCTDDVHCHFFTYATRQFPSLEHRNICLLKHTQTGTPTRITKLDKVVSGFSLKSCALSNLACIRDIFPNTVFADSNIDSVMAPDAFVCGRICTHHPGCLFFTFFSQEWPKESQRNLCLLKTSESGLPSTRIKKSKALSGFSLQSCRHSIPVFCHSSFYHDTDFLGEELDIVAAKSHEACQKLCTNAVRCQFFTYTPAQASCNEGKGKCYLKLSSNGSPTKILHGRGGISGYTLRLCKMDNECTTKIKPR
Human FIXa, sequence (P00740 227-461 limits assumed): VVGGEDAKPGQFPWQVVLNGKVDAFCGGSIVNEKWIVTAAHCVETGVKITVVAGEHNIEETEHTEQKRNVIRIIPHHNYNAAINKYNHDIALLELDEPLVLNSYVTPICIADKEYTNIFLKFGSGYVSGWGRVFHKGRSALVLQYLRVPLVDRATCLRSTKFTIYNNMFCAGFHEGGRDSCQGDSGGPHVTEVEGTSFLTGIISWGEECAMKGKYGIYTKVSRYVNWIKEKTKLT
Human FIXa, sequence (P00740 47-191 limits assumed): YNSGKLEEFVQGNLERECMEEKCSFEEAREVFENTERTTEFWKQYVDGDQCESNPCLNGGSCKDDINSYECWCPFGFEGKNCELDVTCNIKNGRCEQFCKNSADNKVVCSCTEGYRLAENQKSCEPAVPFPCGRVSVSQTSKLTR

Selectivity Index [1] | Selectivity Index [2] | Selectivity Index [3] | selectivity against chymotrypsin [4] | Selectivity Index [5] | Selectivity Index [6] | IC50 [7] | Selectivity Index ([7]; FXa over Bovine Trypsin) | selectivity against trypsin ([7]; FXa over trypsin) | Ki [8] | fold decrease in IC50 relative to inhibitor 13 ([8]; FXa inhibition, relative to 13 (IC50 = 16.4 μM)) | selectivity for FXa inhibition over other coagulation enzymes ([8]; over FIIa, FVIIa, FIXa, FXIa, and FXIIa) | SMILES | PT, concentration doubling the clotting time [9]
>3703 | >1852 | >3703 | ≥ 279 fold | >1852 | >1852 | > 100 µM | >370 | at least 370 fold | 0.135 µM | ~ 60 fold | at least 1852 fold | O=C(Nc1ccc(N2CCOCC2=O)cc1)[C@H]1Cc2ccccc2CN1C(=O)Cc1ccc(Cl)cc1 [Inhibitor 47, (R)-2-(2-(4-chlorophenyl)acetyl)-N-(4-(3-oxomorpholino)phenyl)-1,2,3,4-tetrahydro-isoquinoline-3-carboxamide] | –
– | – | – | – | – | – | – | – | – | – | – | – | CN(C)Cc1nccn1-c1ccc(NC(=O)c2cc(C(F)(F)F)nn2-c2ccc3onc(N)c3c2)c(F)c1 [razaxaban, 1-(3′-aminobenzisoxazol-5′-yl)-3-trifluoromethyl-N-[2-fluoro-4-[(2′-dimethylamino-methyl)imidazol-1-yl]phenyl]-1H-pyrazole-5-carboxyamide hydrochloride] | 3.8 µM
